Some test systems named below: KM20L2 colon; DLD-1 colon; LXFL 529 NSCLC; DMS 273 small cell lung; HOP-18 NSCLC; DMS 114 small cell lung; M19-MEL melanoma; SNB-78 CNS; XF 498 CNS; RXF-631 renal.
Holding throughout (assay): growth of human tumour cells (NCI), 48 h

Structures are written as SMILES.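 Cells were grown in 96-well plates and exposed to each compound for 48 hours at five concentrations; endpoints were interpolated linearly between bracketing concentrations, or set to the highest concentration if not reached. Definition used: TGI = concentration required for complete inhibition of growth.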 Where only a bound is given, the exact number is not on record here.

`COc1ccc(-c2nc3c(nc2-c2ccc(OC)cc2)N(C)S(=O)(=O)N=C3N)cc1`: the TGI in the assay with KM20L2 colon is > 100 µM; in the assay on DLD-1 colon, > 100 µM; in the assay on LXFL 529 NSCLC, > 100 µM; in the assay with DMS 273 small cell lung it was > 100 µM; in the assay on HOP-18 NSCLC, > 100 µM; in the assay with DMS 114 small cell lung, 72.7 µM. Further, in the assay on M19-MEL melanoma, the TGI is > 100 µM.
For the molecule `COc1cc2cc3c4c(cc(OC)c(OC)c4c2cc1OC)CCN3C(=O)CCC(=O)O`, the TGI in the assay on KM20L2 colon, in the assay with DLD-1 colon, with LXFL 529 NSCLC, in the assay with SNB-78 CNS, in the assay with DMS 273 small cell lung and in the assay on DMS 114 small cell lung was > 100 µM each time.
On to `Cc1cc(C)c(C(=O)/C=C/c2ccccc2)c(C)c1`, for which the TGI was 96.9 µM with KM20L2 colon; 68.9 µM in the assay on DLD-1 colon; > 100 µM with LXFL 529 NSCLC; > 100 µM in the assay on HOP-18 NSCLC; 88.3 µM in the assay with DMS 114 small cell lung; > 100 µM with M19-MEL melanoma. Also, the TGI in the assay with XF 498 CNS is 26.5 µM.
On to `CCCCc1c2c(nc3c1CC/C(=C\c1ccc([N+](=O)[O-])cc1)C3=O)CCCC2`, for which the TGI in the assay with KM20L2 colon came to 4.01 µM; with DLD-1 colon, 3.42 µM; in the assay with LXFL 529 NSCLC, 2.68 µM; with SNB-78 CNS it was 4.38 µM; in the assay on DMS 273 small cell lung it was 3.78 µM; in the assay with DMS 114 small cell lung it was 4.4 µM. Also, the TGI with M19-MEL melanoma worked out at 4.59 µM.
`COC1=CC(=O)NCCN1`: the TGI with KM20L2 colon, with DLD-1 colon, in the assay on RXF-631 renal, with LXFL 529 NSCLC, with SNB-78 CNS and in the assay with DMS 273 small cell lung was > 100 µM each time. In addition, the TGI in the assay with HOP-18 NSCLC, in the assay with DMS 114 small cell lung, in the assay on M19-MEL melanoma and in the assay with XF 498 CNS was > 100 µM throughout.
As for `COc1ccc2c(c1)CCN1C3=C(CCC3)C(=O)C[C@@H]21`, the TGI with KM20L2 colon, with LXFL 529 NSCLC, with SNB-78 CNS, in the assay with DMS 273 small cell lung, in the assay with HOP-18 NSCLC and in the assay with DMS 114 small cell lung was > 100 µM throughout. The TGI in the assay on M19-MEL melanoma and in the assay with XF 498 CNS was > 100 µM throughout.
Consider `O=[N+]([O-])c1ccc(COc2cccc3cccnc23)cc1`, for which the TGI with KM20L2 colon is > 100 µM; with DLD-1 colon, 71.2 µM; in the assay on RXF-631 renal, 33.3 µM; in the assay on LXFL 529 NSCLC, > 100 µM; in the assay with SNB-78 CNS, > 100 µM; with DMS 273 small cell lung, 20.8 µM. The TGI is > 100 µM with HOP-18 NSCLC, 6.92 µM in the assay with DMS 114 small cell lung, 38.2 µM in the assay with M19-MEL melanoma and 67.5 µM in the assay on XF 498 CNS.
As to `CCN(CC)CC(=O)Nc1ccc2c(c1)C(=O)c1ccc(NC(=O)CN(CC)CC)cc1C2=O`, the TGI with KM20L2 colon was > 100 µM; in the assay on DLD-1 colon, > 100 µM; in the assay with LXFL 529 NSCLC it was 49 µM; in the assay on SNB-78 CNS, > 100 µM; in the assay on DMS 273 small cell lung it was > 100 µM; in the assay with DMS 114 small cell lung, 37.4 µM. Further, the TGI in the assay on M19-MEL melanoma is > 100 µM.
